Data reported in ChEMBL document CHEMBL1136284, “An aminopyridazine-based inhibitor of a pro-apoptotic protein kinase attenuates hypoxia-ischemia induced acute brain injury” (Bioorg Med Chem Lett, 2003).

Columns and labels:
[1] = Inhibition of Death associated protein kinase
CaM kinase II = CaM kinase II (Homo sapiens, UniProt Q13557+Q13555+Q13554+Q9UQM7); assay: Inhibition of Calcium/calmodulin-dependent protein kinase type II; type: protein assay
Protein kinase C (PKC) = assay: Inhibition of Protein kinase C; type: protein assay
[2] = target: cAMP-dependent protein kinase (PKA) (Homo sapiens, UniProt P22694+P17612+P22612); assay: Inhibition of Protein kinase A; type: protein assay
Rattus norvegicus [3] = organism: Rattus norvegicus; assay: Brain hemisphere weight loss 6 hr after HI injury in rats
[4] = Displacement of ATP from Death associated protein kinase
Rattus norvegicus [5] = assay: Brain hemisphere weight loss after 5 mg/kg ip administration prior to HI injury in rats; settings: route intraperitoneal

Structure (SMILES)	IC50 [1] [µM]	IC50 (CaM kinase II) [µM]	IC50 (Protein kinase C (PKC)) [µM]	IC50 [2] [µM]	Weight loss (Rattus norvegicus [3]) [%]	Ki [1] [µM]	Ki [4] [µM]	Weight loss (Rattus norvegicus [5]) [%]
Cc1ccc(=N)n(CCCCCCCCCCC(=O)Nc2ccc(-c3ccccc3)nn2)n1	> 100	> 100	31	> 100	–	–	–	–
N=c1ccc(-c2ccccc2)nn1CCCCCCCCCCC(=O)Nc1ccc(-c2ccccc2)nn1	22	> 100	3	> 100	–	–	–	–
N=c1cc2c(nn1CCCCCCCCCCC(=O)Nc1ccc(-c3ccccc3)nn1)-c1ccccc1CC2	13	–	> 100	> 100	21.6	15	20	17.3
Cc1cc(-c2ccccc2)nnc1NCCN1CCOCC1 [MINAPRINE]	> 100	> 100	> 100	> 100	–	–	–	–
